SMILES strings stand for the structures.

Experiment [1] deals with T1, Mixed lineage kinase domain-like protein (Homo sapiens) (UniProt Q8NB16).
T1 sequence (whole entry): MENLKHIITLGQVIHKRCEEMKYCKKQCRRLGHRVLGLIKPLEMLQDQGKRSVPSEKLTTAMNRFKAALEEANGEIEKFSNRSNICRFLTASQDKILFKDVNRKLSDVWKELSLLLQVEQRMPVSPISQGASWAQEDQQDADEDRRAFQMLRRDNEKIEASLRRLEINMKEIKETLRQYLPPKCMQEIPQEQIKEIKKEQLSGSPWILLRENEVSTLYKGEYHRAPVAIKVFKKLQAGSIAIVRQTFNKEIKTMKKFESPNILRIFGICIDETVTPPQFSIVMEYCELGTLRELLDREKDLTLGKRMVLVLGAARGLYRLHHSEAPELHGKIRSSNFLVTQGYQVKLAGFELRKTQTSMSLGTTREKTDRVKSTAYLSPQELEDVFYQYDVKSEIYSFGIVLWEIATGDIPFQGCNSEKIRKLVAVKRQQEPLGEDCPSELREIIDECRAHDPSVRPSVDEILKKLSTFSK
As to the kind of experiment: Selectivity interaction (ActivX KiNativ screen (ex vivo kinase selectivity in human PBMCs)) EUB0001619a MLKL. The note with it: PBMC, at 1 µM. It counts as cell-based.

Experiment [2] concerns the target T2, Mitogen-activated protein kinase kinase kinase 5 (Homo sapiens) (UniProt Q99683).
T2 sequence (whole entry): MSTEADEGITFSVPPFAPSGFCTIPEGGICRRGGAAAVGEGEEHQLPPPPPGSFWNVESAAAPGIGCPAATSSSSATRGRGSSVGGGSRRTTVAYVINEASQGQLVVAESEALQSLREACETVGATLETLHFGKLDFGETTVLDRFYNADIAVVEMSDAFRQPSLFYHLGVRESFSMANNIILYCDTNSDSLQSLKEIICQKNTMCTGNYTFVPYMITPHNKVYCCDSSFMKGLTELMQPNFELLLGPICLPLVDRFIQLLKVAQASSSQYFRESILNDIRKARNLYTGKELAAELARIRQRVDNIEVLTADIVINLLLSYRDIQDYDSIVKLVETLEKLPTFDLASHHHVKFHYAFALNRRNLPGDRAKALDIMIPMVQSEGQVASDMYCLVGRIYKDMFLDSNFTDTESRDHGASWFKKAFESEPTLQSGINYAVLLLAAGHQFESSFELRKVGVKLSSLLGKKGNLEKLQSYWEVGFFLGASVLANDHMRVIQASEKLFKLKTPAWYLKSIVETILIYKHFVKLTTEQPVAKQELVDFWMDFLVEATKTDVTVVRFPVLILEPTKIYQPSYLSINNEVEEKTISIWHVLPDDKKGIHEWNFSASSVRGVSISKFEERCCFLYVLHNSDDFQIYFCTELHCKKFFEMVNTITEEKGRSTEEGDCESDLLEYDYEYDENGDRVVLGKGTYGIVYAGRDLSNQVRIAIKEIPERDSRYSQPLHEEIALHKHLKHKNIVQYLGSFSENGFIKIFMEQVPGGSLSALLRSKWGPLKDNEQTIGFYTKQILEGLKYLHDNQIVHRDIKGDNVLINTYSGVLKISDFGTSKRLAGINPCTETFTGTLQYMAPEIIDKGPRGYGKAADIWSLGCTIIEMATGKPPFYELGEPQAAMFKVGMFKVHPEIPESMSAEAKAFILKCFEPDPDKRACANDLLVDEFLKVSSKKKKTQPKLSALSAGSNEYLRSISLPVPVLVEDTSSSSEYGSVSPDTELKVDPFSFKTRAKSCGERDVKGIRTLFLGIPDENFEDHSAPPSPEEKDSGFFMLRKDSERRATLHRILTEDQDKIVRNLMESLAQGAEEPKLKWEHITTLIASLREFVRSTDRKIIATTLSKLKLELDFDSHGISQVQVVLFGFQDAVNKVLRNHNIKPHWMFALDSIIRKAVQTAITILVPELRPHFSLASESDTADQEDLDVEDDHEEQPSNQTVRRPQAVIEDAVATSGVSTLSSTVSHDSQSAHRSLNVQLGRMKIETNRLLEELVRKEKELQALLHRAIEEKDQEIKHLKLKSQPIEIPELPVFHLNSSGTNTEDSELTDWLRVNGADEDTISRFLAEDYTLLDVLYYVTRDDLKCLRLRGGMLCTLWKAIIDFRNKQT
Description: Selectivity interaction (ActivX KiNativ screen (kinase selectivity in THP-1 cell lysates)) EUB0000639a MAP3K5. The note with it: lysate, at 1 µM. The class given is subcellular.

The target of experiment [3] is Cyclin-dependent kinase 17 (Homo sapiens) (UniProt Q00537). Description: Selectivity interaction (ActivX KiNativ screen (kinase selectivity in THP-1 cell lysates)) EUB0000639a CDK17. The class given is subcellular. The note with it: lysate, at 0.2 µM.
Experiment [4] has as its target Serine/threonine-protein kinase PLK3 (Homo sapiens, UniProt Q9H4B4). As to conditions: at 10 µM.
Experiment [5] concerns the target T3, Dual specificity mitogen-activated protein kinase kinase 4 (Homo sapiens) (UniProt P45985).
T3 sequence (whole entry): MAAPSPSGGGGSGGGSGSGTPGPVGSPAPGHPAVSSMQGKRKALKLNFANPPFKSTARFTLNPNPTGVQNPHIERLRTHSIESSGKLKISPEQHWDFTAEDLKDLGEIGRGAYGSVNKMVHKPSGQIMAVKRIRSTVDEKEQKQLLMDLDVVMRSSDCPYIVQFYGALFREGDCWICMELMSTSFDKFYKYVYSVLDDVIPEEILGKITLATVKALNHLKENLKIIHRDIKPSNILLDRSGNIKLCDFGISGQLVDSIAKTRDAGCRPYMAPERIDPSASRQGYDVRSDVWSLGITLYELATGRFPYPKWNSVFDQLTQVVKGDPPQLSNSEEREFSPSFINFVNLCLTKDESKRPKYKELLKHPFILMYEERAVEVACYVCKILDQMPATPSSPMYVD
As to the kind of experiment: Selectivity interaction (ProQinase) EUB0000171b MAP2K4.

Experiment [6] deals with Ephrin type-A receptor 5 (Homo sapiens) (UniProt P54756). Description: Selectivity interaction (KinomeScan (DiscoverX)) EUB0000595a EPHA5. As to conditions: at 10 µM.
The target of experiment [7] is Serine/threonine-protein kinase Nek7 (Homo sapiens) (UniProt Q8TDX7). As to the kind of experiment: Selectivity interaction (KinomeScan (DiscoverX)) EUB0000595a NEK7. As to conditions: at 10 µM.
Sequence of Serine/threonine-protein kinase Nek7 (Homo sapiens) (Q8TDX7 whole entry, looked up): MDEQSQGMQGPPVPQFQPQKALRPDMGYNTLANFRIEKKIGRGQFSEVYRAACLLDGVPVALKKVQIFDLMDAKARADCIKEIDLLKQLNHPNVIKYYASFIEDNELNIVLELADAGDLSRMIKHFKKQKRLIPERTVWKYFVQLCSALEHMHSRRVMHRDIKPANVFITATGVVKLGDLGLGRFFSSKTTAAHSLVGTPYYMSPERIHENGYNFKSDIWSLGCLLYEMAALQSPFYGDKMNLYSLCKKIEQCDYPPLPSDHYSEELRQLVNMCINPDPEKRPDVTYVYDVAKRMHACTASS

Sequence of Cyclin-dependent kinase 17 (Homo sapiens) (Q00537 whole entry, looked up): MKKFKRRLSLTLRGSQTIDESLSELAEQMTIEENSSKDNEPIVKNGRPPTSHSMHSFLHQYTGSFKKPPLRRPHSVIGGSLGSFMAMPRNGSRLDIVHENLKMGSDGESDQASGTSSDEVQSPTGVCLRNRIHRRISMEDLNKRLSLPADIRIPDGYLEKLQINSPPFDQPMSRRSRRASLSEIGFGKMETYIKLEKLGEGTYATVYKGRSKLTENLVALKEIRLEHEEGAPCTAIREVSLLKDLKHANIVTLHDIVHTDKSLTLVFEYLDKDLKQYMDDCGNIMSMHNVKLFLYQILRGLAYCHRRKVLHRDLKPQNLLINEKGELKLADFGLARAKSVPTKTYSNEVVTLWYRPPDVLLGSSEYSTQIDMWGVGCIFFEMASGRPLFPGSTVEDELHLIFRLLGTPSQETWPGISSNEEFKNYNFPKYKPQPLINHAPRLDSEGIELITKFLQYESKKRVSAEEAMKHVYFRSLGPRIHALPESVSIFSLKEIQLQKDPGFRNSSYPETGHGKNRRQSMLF
Sequence of Ephrin type-A receptor 5 (Homo sapiens) (P54756 whole entry): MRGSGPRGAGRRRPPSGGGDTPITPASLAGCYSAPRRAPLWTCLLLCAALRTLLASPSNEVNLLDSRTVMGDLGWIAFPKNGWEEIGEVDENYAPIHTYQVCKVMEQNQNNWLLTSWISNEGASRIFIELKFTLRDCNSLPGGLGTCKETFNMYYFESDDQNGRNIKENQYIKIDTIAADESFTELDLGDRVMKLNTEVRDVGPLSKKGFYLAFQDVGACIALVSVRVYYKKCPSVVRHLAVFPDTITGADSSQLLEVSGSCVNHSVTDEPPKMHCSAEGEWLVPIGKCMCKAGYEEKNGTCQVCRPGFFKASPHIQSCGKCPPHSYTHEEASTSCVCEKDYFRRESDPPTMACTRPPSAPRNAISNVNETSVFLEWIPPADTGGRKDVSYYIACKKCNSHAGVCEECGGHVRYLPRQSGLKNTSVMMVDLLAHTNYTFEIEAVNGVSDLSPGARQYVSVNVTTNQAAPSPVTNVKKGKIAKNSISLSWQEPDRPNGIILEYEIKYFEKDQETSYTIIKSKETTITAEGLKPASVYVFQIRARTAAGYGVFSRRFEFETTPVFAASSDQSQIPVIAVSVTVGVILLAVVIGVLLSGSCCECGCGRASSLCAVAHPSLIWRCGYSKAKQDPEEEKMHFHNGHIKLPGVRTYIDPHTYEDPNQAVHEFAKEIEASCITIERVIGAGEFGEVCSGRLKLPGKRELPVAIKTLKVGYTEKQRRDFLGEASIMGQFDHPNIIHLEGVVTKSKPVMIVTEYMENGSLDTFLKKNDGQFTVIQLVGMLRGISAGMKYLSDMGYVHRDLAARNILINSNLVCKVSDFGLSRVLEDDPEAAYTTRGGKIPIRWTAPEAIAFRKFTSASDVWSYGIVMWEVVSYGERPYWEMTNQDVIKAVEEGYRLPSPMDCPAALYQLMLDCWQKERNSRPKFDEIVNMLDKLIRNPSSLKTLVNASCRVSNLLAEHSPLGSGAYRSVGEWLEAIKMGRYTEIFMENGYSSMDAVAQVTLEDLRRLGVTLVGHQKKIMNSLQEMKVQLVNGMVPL
Sequence of Serine/threonine-protein kinase PLK3 (Q9H4B4 whole entry, looked up): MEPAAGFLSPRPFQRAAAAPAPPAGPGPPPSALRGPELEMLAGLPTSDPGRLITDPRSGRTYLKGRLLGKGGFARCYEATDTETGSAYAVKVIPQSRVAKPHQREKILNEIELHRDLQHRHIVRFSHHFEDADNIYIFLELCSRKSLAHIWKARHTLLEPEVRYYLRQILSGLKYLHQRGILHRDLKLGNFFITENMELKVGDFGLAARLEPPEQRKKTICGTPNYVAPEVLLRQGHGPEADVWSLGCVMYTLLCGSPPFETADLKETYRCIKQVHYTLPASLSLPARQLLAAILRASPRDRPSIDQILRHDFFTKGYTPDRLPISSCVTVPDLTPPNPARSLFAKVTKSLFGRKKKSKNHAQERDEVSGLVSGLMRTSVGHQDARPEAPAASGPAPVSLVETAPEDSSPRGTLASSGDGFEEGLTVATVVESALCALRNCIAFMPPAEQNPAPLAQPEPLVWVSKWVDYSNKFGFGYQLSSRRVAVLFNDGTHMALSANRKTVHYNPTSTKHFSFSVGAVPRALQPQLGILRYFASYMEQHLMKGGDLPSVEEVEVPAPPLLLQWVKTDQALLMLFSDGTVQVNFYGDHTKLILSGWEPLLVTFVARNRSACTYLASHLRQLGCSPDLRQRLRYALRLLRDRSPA

Consider `N#Cc1cccc(-c2c[nH]c3ncnc(N4CCOCC4)c23)c1`, for which, in experiment [1], the % of inhibition was 15%.
On to `CC[C@@H]1[C@H](F)C(=O)N[C@@H]1COc1nccc2cc(C(N)=O)c(OC)cc12` [ZIMLOVISERTIB], for which the % of inhibition was -29.6% in experiment [2] and 0.4% in experiment [3].
On to `CCN(CC)CCCCNc1ncc2cc(-c3cc(OC)cc(OC)c3)c(NC(=O)NC(C)(C)C)nc2n1`, for which, in experiment [4], the % of control came to 100%.
With `C=CC(=O)Nc1cccc(C(=O)Nc2ccc(Nc3cc(-c4[nH]c(SC)nc4C)ccn3)cc2)c1`, the % of control in experiment [5] (at 1 µM) is 71%; in experiment [5] (at 5 µM) it was 90%.
With `COCC(=O)NC/C=C/c1ccc2ncnc(Nc3ccc(Oc4ccc(C)nc4)c(C)c3)c2c1` [CP-724714], the figures for the % of control in experiment [6] and in experiment [7] were 100% and 73%, respectively.

(Values after ChEMBL document CHEMBL5465560, “Selectivity Literature for EUbOPEN Chemogenomic Library” (2024).)
